For the assay, the target named is T1, BRM (Homo sapiens, UniProt P51531).
T1 construct: Western Blot Screen of BRM Degradation in SW1573 Cells; endogenous in cells; host or cells: SW1573 cells
Nature of the assay: BRM degradation (Dmax and DC50) in SW1573 cells, Western blot screen / In-Cell Western screen. Type of assay: cell-based. The conditions noted are these: overnight (18-20 hours) treatment; for Dmax: read-out: Dmax (%)** (% degraded). Summed up:
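SW1573 cells were treated with compound for 18–20 h (final 0.1% DMSO). BRM was quantified either by Western blot of RIPA lysates or by fixed-cell In-Cell Western (LI-COR, 800/680 nm), each normalised to alpha-tubulin, giving Dmax and DC50.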

Experimental findings from US20250059198A1, “BRM DEGRADING COMPOUNDS AND ASSOCIATED METHODS OF USE” (Arvinas Operations, Inc., priority 2021, published 2025) are described below.

T1 sequence (P51531 whole entry): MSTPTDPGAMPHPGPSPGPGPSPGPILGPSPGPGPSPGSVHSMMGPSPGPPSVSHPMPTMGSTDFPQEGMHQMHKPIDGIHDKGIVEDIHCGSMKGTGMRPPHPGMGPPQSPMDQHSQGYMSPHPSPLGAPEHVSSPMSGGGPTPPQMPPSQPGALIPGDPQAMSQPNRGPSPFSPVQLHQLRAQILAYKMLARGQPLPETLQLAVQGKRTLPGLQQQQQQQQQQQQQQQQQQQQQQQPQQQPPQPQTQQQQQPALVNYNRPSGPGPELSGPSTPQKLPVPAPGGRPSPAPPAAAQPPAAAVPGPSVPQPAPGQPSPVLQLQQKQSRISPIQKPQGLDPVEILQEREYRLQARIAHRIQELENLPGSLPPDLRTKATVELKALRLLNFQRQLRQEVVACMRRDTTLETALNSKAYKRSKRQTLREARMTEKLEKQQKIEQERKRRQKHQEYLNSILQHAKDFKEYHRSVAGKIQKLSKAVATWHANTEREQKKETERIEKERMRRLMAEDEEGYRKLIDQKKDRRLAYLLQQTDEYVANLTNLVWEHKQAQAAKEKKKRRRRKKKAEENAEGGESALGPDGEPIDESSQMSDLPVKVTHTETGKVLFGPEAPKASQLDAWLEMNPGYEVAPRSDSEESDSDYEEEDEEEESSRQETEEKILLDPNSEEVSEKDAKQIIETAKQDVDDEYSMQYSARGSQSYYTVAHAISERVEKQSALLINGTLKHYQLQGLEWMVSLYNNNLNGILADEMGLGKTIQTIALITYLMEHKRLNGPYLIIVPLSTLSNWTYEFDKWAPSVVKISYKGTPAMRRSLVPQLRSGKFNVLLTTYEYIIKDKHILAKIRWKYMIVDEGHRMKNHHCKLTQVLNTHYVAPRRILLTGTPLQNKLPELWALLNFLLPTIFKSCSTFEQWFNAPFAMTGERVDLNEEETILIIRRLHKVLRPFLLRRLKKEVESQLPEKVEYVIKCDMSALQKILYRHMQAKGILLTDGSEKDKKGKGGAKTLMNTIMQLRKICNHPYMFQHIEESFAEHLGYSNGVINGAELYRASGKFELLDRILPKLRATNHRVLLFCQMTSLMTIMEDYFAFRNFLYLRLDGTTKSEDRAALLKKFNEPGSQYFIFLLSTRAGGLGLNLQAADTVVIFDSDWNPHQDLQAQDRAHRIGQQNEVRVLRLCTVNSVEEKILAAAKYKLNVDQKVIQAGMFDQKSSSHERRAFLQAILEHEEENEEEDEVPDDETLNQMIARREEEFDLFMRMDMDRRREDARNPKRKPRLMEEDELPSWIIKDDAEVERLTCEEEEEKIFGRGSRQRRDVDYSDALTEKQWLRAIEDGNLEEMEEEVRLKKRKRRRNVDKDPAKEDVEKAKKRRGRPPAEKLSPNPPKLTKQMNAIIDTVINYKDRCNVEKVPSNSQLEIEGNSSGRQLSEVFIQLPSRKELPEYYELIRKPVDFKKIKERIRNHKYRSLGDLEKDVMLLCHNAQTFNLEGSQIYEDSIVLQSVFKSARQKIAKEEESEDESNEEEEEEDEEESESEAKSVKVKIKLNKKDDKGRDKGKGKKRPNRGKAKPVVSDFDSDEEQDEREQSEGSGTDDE

`CC(C)[C@@H](C(=O)N1C[C@H](O)C[C@H]1C(=O)N[C@@H](C)c1ccc(-c2c(F)cnn2C)cc1)c1cc(N2CCC(CN3CCC(O[C@H]4C[C@H](Oc5cc(N6CCN(c7cc(-c8ccccc8O)nnc7N)CC6)ccn5)C4)CC3)CC2)no1` [Compound 40, (2S,4R)-N-[(1S)-1-[4-(4-fluoro-1-methyl-1H-pyrazol-5-yl)phenyl]ethyl]-4-hydroxy-1-[(2R)-3-methyl-2-{3-[4-({4-[(1r,3r)-3-[(4-{4-[3-amino-6-(2-hydroxyphenyl)pyridazin-4-yl]piperazin-1-yl}pyridin-2-yl)oxy]cyclobutoxy]piperidin-1-yl}methyl)piperidin-1-yl]-1,2-oxazol-5-yl}butanoyl]pyrrolidine-2-carboxamide]: the DC50 is under 2.5 nM and the Dmax is over 75%.
In turn, `CC(C)[C@H](C(=O)N1C[C@H](O)C[C@H]1C(=O)N[C@@H](C)c1ccc(-c2ccnn2C)cc1)c1cc(N2CCC(OC3CCN(CC4CC(N5CCC([C@@H](C)n6cc(C#Cc7cc(-c8ccccc8O)nnc7N)cn6)CC5)C4)CC3)CC2)no1` (stereo partly drawn) [Compound 109, (2S,4R)-1-[(2S)-2-{3-[4-({1-[(3-{4-[(1R)-1-(4-{2-[3-amino-6-(2-hydroxyphenyl)pyridazin-4-yl]ethynyl}-1H-pyrazol-1-yl)ethyl]piperidin-1-yl}cyclobutyl)methyl]piperidin-4-yl}oxy)piperidin-1-yl]-1,2-oxazol-5-yl}-3-methylbutanoyl]-4-hydroxy-N-[(1S)-1-[4-(1-methyl-1H-pyrazol-5-yl)phenyl]ethyl]pyrrolidine-2-carboxamide] registered a DC50 of at least 30 nM.
In the case of `CC(C)[C@@H](C(=O)N1C[C@H](O)C[C@H]1C(=O)N[C@@H](C)c1ccc(-c2ccnn2C)cc1)c1cc(N2CCC(CN3CCC(O[C@H]4C[C@H](N5CCC(C(C)n6cc(C#Cc7cc(-c8ccccc8O)nnc7N)cn6)CC5)C4)CC3)CC2)no1` (stereo partly drawn) [Compound 42, (2S,4R)-4-hydroxy-N-[(1S)-1-[4-(1-methyl-1H-pyrazol-5-yl)phenyl]ethyl]-1-[(2R)-3-methyl-2-{3-[4-({4-[(1r,3r)-3-{4-[1-(4-{2-[3-amino-6-(2-hydroxyphenyl)pyridazin-4-yl]ethynyl}-1H-pyrazol-1-yl)ethyl]piperidin-1-yl}cyclobutoxy]piperidin-1-yl}methyl)piperidin-1-yl]-1,2-oxazol-5-yl}butanoyl]pyrrolidine-2-carboxamide], the DC50 is under 2.5 nM and the Dmax was over 75%.
For the compound `Cc1ncsc1-c1ccc([C@H](C)NC(=O)[C@@H]2C[C@@H](O)CN2C(=O)[C@@H](c2cc(N3CCC(OC4CCN(C[C@H]5C[C@@H](N6CCO[C@@H](CN7C8CCC7CN(c7cc(-c9ccccc9O)nnc7N)C8)C6)C5)CC4)CC3)no2)C(C)C)cc1` [Compound 108, (2S,4R)-1-((2R)-2-(3-(4-((1-(((1S,3s)-3-((2R)-2-((3-(3-amino-6-(2-hydroxyphenyl)pyridazin-4-yl)-3,8-diazabicyclo[3.2.1]octan-8-yl)methyl)morpholino)cyclobutyl)methyl)piperidin-4-yl)oxy)piperidin-1-yl)isoxazol-5-yl)-3-methylbutanoyl)-4-hydroxy-N-((S)-1-(4-(4-methylthiazol-5-yl)phenyl)ethyl)pyrrolidine-2-carboxamide], the DC50 is under 2.5 nM and the Dmax was over 75%.
For `Cc1ncsc1-c1ccc([C@H](C)NC(=O)C2C[C@@H](O)CN2C(=O)[C@@H](c2cc(N3CCC(CN4CC[C@@H](Oc5cc(N6C7CCC6CN(c6cc(-c8ccccc8O)nnc6N)C7)ccn5)C(F)(F)C4)CC3)no2)C(C)C)cc1` (stereo in doubt) [Compound 53, (2S,4R)-1-[(2R)-2-[3-(4-{[(4R)-4-[(4-{3-[3-amino-6-(2-hydroxyphenyl)pyridazin-4-yl]-3,8-diazabicyclo[3.2.1]octan-8-yl}pyridin-2-yl)oxy]-3,3-difluoropiperidin-1-yl]methyl}piperidin-1-yl)-1,2-oxazol-5-yl]-3-methylbutanoyl]-4-hydroxy-N-[(1S)-1-[4-(4-methyl-1,3-thiazol-5-yl)phenyl]ethyl]pyrrolidine-2-carboxamide], in that order: 2.5 to 10 nM and over 75%.
For `Cc1ncsc1-c1ccc([C@H](CC(=O)N2CCC(CN3CCC(O[C@H]4C[C@H](Oc5cc(N6C7CCC6CN(c6cc(-c8ccccc8O)nnc6N)C7)ccn5)C4)CC3)CC2)NC(=O)[C@@H]2C[C@@H](O)CN2C(=O)[C@H](C(C)C)N2Cc3ccccc3C2=O)cc1` [Compound 38, (2S,4R)-4-hydroxy-N-[(1S)-1-[4-(4-methyl-1,3-thiazol-5-yl)phenyl]-3-oxo-3-[4-({4-[(1r,3r)-3-[(4-{3-[3-amino-6-(2-hydroxyphenyl)pyridazin-4-yl]-3,8-diazabicyclo[3.2.1]octan-8-yl}pyridin-2-yl)oxy]cyclobutoxy]piperidin-1-yl}methyl)piperidin-1-yl]propyl]-1-[(2S)-3-methyl-2-(1-oxo-2,3-dihydro-1H-isoindol-2-yl)butanoyl]pyrrolidine-2-carboxamide], in that order: under 2.5 nM and over 75%.
In the case of `Cc1ncsc1-c1ccc([C@H](C)NC(=O)[C@@H]2C[C@@H](O)CN2C(=O)[C@@H](c2cc(N3CCC(CN4CCC(O[C@H]5C[C@@H](N6CCC([C@@H](C)n7cc(-c8cc(-c9ccccc9O)nnc8N)cn7)CC6)C5)CC4)CC3)no2)C(C)C)cc1` (single isomer, unassigned) [Compound 6], the DC50 is under 2.5 nM and the Dmax was over 75%.
The matching figures for `Cc1ncsc1-c1ccc([C@H](C)NC(=O)[C@@H]2C[C@@H](O)CN2C(=O)[C@@H](c2cc(N3CCC(CN4CCC5(CC4)CC(N4CCN(C)[C@@H](CN6C7CCC6CN(c6cc(-c8ccccc8O)nnc6N)C7)C4)C5)CC3)no2)C(C)C)cc1` [Compound 133, (2S,4R)-1-[(2R)-2-{3-[4-({2-[(3R)-3-({3-[3-amino-6-(2-hydroxyphenyl)pyridazin-4-yl]-3,8-diazabicyclo[3.2.1]octan-8-yl}methyl)-4-methylpiperazin-1-yl]-7-azaspiro[3.5]nonan-7-yl}methyl)piperidin-1-yl]-1,2-oxazol-5-yl}-3-methylbutanoyl]-4-hydroxy-N-[(1S)-1-[4-(4-methyl-1,3-thiazol-5-yl)phenyl]ethyl]pyrrolidine-2-carboxamide]: under 2.5 nM and over 75%.
The matching figures for `Cc1ncsc1-c1ccc([C@H](C)NC(=O)[C@@H]2C[C@@H](O)CN2C(=O)[C@@H](c2cc(N3CCC(CN4CCC(O[C@H]5C[C@H](N6CCC(C#N)(CN7C8CCC7CN(c7cc(-c9ccccc9O)nnc7N)C8)CC6)C5)CC4)CC3)no2)C(C)C)cc1` [Compound 20, (2S,4R)-4-hydroxy-N-[(1S)-1-[4-(4-methyl-1,3-thiazol-5-yl)phenyl]ethyl]-1-[(2R)-3-methyl-2-{3-[4-({4-[(1r,3r)-3-[4-({3-[3-amino-6-(2-hydroxyphenyl)pyridazin-4-yl]-3,8-diazabicyclo[3.2.1]octan-8-yl}methyl)-4-cyanopiperidin-1-yl]cyclobutoxy]piperidin-1-yl}methyl)piperidin-1-yl]-1,2-oxazol-5-yl}butanoyl]pyrrolidine-2-carboxamide]: under 2.5 nM and over 75%.
For `CC(C)[C@@H](C(=O)N1C[C@H](O)C[C@H]1C(=O)N[C@@H](C)c1ccc(C#N)cc1)c1cc(N2CCN(C(=O)N3CCC(O[C@H]4C[C@H](Oc5cc(N6C7CCC6CN(c6cc(-c8ccccc8O)nnc6N)C7)ccn5)C4)CC3)CC2)no1` [Compound 140, (2S,4R)-N-[(1S)-1-(4-cyanophenyl)ethyl]-4-hydroxy-1-[(2R)-3-methyl-2-[3-(4-{4-[(1r,3r)-3-[(4-{3-[3-amino-6-(2-hydroxyphenyl)pyridazin-4-yl]-3,8-diazabicyclo[3.2.1]octan-8-yl}pyridin-2-yl)oxy]cyclobutoxy]piperidine-1-carbonyl}piperazin-1-yl)-1,2-oxazol-5-yl]butanoyl]pyrrolidine-2-carboxamide], the DC50 was under 2.5 nM and the Dmax was over 75%.
For `Cc1ncsc1-c1ccc([C@H](C)NC(=O)[C@@H]2C[C@@H](O)CN2C(=O)[C@@H](c2cc(N3CCC(CN4CCC5(CC4)CC(N4CCO[C@H](C(C)n6cc(-c7cc(-c8ccccc8O)nnc7N)cn6)C4)C5)CC3)no2)C(C)C)cc1` (stereo partly drawn) [Compound 88, (2S,4R)-1-[(2R)-2-{3-[4-({2-[(2S)-2-(1-(4-[3-amino-6-(2-hydroxyphenyl)pyridazin-4-yl]-1H-pyrazol-1-yl}ethyl)morpholin-4-yl]-7-azaspiro[3.5]nonan-7-yl}methyl)piperidin-1-yl]-1,2-oxazol-5-yl}-3-methylbutanoyl]-4-hydroxy-N-[(1S)-1-[4-(4-methyl-1,3-thiazol-5-yl)phenyl]ethyl]pyrrolidine-2-carboxamide], in that order: under 2.5 nM and over 75%.
For `Cc1ncsc1-c1ccc([C@H](C)NC(=O)[C@@H]2C[C@@H](O)CN2C(=O)[C@@H](c2cc(N3CCC(CN4CCC(OC(=O)N5CCN(c6cc(-c7ccccc7O)nnc6N)CC5)CC4)CC3)no2)C(C)C)cc1` [Compound 65, 1-[(1-{5-[(2R)-1-[(2S,4R)-4-hydroxy-2-{[(1S)-1-[4-(4-methyl-1,3-thiazol-5-yl)phenyl]ethyl]carbamoyl}pyrrolidin-1-yl]-3-methyl-1-oxobutan-2-yl]-1,2-oxazol-3-yl}piperidin-4-yl)methyl]piperidin-4-yl 4-[3-amino-6-(2-hydroxyphenyl)pyridazin-4-yl]piperazine-1-carboxylate], in that order: under 2.5 nM and over 75%.
